Data from publication PMC12320831, “Synthesis and Biological Evaluation of New Chalcogen Semicarbazone (S, Se) and Their Azole Derivatives against Chagas Disease” (Journal of Medicinal Chemistry, 2024).
Structures can show the parent of a compound that is named as a salt. Where two headings read alike, the source gives them in different places.

What was measured:
[1] = target: T1, recombinant Cz (cruzain) (Trypanosoma cruzi, UniProt P25779); test: biochemical; details: read-out: Cz inhibition (%), 10 µM
T1 construct: Cz was expressed and purified as described in da Silva et al; made in house
T1 sequence (P25779 123-337 limits assumed): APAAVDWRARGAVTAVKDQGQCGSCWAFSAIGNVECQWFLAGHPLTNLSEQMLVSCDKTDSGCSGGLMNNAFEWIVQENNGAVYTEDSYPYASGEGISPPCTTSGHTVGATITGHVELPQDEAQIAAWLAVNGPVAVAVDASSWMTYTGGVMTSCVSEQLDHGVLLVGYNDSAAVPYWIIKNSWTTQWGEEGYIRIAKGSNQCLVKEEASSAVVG
Protocol: The screening assay was performed using 1 nM of Cz diluted in 0.1 M sodium acetate pH 5.5, 1 mM dithiothreitol (DTT), and 0.01% Triton X-100. Cz was expressed and purified as described in da Silva et al. The reaction starts after 10 min incubating the enzyme with the compounds (10 μM), when adding 2.5 μM of the substrate Z-FR-AMC final concentration (Z-Phe-Arg-amidomethylcoumarin, Sigma-Aldrich, C9521) diluted in the same assay buffer (final volume of 30 μL). The experiment was performed for 10 min. […] The DRC was performed with at least nine different concentrations of the inhibitors, diluted by 2-fold serial dilution, ranging from […] to 10 μM.
All experiments were accomplished in a 384-well black microplate, using a Synergy HTX (Biotek) plate reader at 25 °C with absorption/emission wavelengths of 360/460 nm. All assays were performed in triplicate wells and DMSO was used as a vehicle control. Enzymatic activity was measured and normalized to DMSO controls, and the inhibitor E-64 (10 μM) was used as a positive control for all assays. All experiments were performed in triplicates, with at least two independent assays (n = 6 data points). IC50 values were determined through nonlinear regression. Obtained data were treated and analyzed using GraphPad Prism 9.0 (GraphPad Software, La Jolla, California).

[2] = system: T. cruzi CAI/72 strain; test: Antiparasitic activity in C2C12 cells infected with T. cruzi CAI/72 (image-based assay); assay type: cell-based; details: Trypanosoma cruzi
Protocol: Antiparasitic activity and cytotoxicity of compounds were determined as described before (da Silva et al., Boudreau et al.). Mouse myoblasts cell line C2C12 (ATCCCRL-1772), were maintained in high glucose (4.5 g/L glucose) Dulbecco’s modified Eagle’s medium (DMEM Gibco), supplemented with 1% penicillin–streptomycin 10,000 U/mL (Gibco) and 5% fetal bovine serum (FBS, Sigma-Aldrich) at 37 °C with 5% CO2. parasites (CAI/72 strain, DTU TcI) were maintained by weekly coinfection with C2C12 cells. For all activity assays, C2C12 cells were infected at a 10:1 parasite-to-cell ratio with culture-derived trypomastigotes, which were harvested from the supernatant of infected C2C12 cells. After adding compounds to 384-well black clear-bottom plates (Greiner cat. no. 781091), trypomastigotes (7000 parasites/well) and C2C12 cells (700 cells/well) were seeded in a total volume of 50 μL of DMEM per well in the 384-well plates. Compounds were first tested at 10 μM. […] Plates were imaged with the automated ImageXpress MicroXL microscope (Molecular Devices) and analyzed by MetaXpress software (Molecular Devices) using a custom module optimized for this assay. Infection levels (parasites per host cell) were normalized to the positive control (40 μM BNZ) and negative control (DMSO). Antiparasitic activity (EC50) ± standard deviation (SD) and host cell cytotoxicity (C2C12 viability) values were determined from the DRC using Prism software (GraphPad Software, La Jolla, CA). Every assay has three biological replicates, each in triplicates (n = 9 data points).

[3] = Host cell cytotoxicity (C2C12 viability); assay type: cell-based, Mouse; details: mouse, 10 µM, < 50% viability considered cytotoxic
Protocol: Antiparasitic activity and cytotoxicity of compounds were determined as described before (da Silva et al., Boudreau et al.). Mouse myoblasts cell line C2C12 (ATCCCRL-1772), were maintained in high glucose (4.5 g/L glucose) Dulbecco’s modified Eagle’s medium (DMEM Gibco), supplemented with 1% penicillin–streptomycin 10,000 U/mL (Gibco) and 5% fetal bovine serum (FBS, Sigma-Aldrich) at 37 °C with 5% CO2. parasites (CAI/72 strain, DTU TcI) were maintained by weekly coinfection with C2C12 cells. For all activity assays, C2C12 cells were infected at a 10:1 parasite-to-cell ratio with culture-derived trypomastigotes, which were harvested from the supernatant of infected C2C12 cells. After adding compounds to 384-well black clear-bottom plates (Greiner cat. no. 781091), trypomastigotes (7000 parasites/well) and C2C12 cells (700 cells/well) were seeded in a total volume of 50 μL of DMEM per well in the 384-well plates. Compounds were first tested at 10 μM. […] After 48 h at 37 °C and 5% CO2, plates were fixed with 4% formaldehyde solution for at least 1 h, washed with 1× PBS, and stained with 5 μg/mL of 4′,6-diamidino-2-phenylindole (DAPI) for at least 1 h prior to reading. Plates were imaged with the automated ImageXpress MicroXL microscope (Molecular Devices) and analyzed by MetaXpress software (Molecular Devices) using a custom module optimized for this assay. Infection levels (parasites per host cell) were normalized to the positive control (40 μM BNZ) and negative control (DMSO). Antiparasitic activity (EC50) ± standard deviation (SD) and host cell cytotoxicity (C2C12 viability) values were determined from the DRC using Prism software (GraphPad Software, La Jolla, CA). Every assay has three biological replicates, each in triplicates (n = 9 data points).

[4] = 10 µM, C2C12 infected cells, read-out: Anti-Tc CAI/72 activity (%)
[5] = C2C12 myoblast cells infected with trypomastigotes
[6] = C2C12, read-out: Anti-Tc CAI/72 activity (%)

With `C/C(=N\Nc1nc(C)cs1)c1ccc(Br)cc1` [Compound S2f, (E)-2-(2-(1-(4-Bromophenyl)ethylidene)hydrazineyl)-4-methylthiazole hydrochloride] as the molecule, how does the inhibition at 10 µM [1] read?
The inhibition at 10 µM was 53%.

What about the inhibition at 10 µM [2, 4] of the same molecule?
Its inhibition at 10 µM is 1.1%.

What about the viability at 48 h, 10 µM [3, 5] of the same molecule?
The viability at 48 h, 10 µM was over 100%.

With `COc1cccc(/C(C)=N/Nc2nc(C)cs2)c1` [Compound S2g, (E)-2-(2-(1-(3-Methoxyphenyl)ethylidene)hydrazineyl)-4-methylthiazole hydrochloride] as the molecule, how does the inhibition at 10 µM [1] read?
Its inhibition at 10 µM is 45.1%.

And the inhibition at 10 µM [2, 4]?
The inhibition at 10 µM was 40.6%.

And the viability at 48 h, 10 µM [3, 5]?
The viability at 48 h, 10 µM was over 100%.

Which results are given for `C/C(=N\Nc1nc(C)cs1)c1ccc(F)c(F)c1` [Compound S2j, (E)-2-(2-(1-(3,4-Difluorophenyl)ethylidene)hydrazineyl)-4-methylthiazole Hydrochloride]?
inhibition at 10 µM [1]: 79.4%; inhibition at 10 µM [2, 4]: 28.3%; viability at 48 h, 10 µM [3, 5]: > 100%

For `COc1ccc(/C(C)=N/Nc2nc(C)cs2)c(OC)c1` [Compound S2k, (E)-2-(2-(1-(2,4-Dimethoxyphenyl)ethylidene)hydrazineyl)-4-methylthiazole Hydrochloride], which inhibition at 10 µM [1] is on record?
Its inhibition at 10 µM is 34.2%.

And the inhibition at 10 µM [2, 4]?
The inhibition at 10 µM was 46%.

What about the viability at 48 h, 10 µM [3, 5] of the same molecule?
The viability at 48 h, 10 µM was over 100%.

With `C/C(=N\Nc1nc(C)cs1)c1ccsc1` [Compound S2l, (E)-4-Methyl-2-(2-(1-(thiophen-3-yl)ethylidene)hydrazineyl)thiazole Hydrochloride] as the molecule, how does the inhibition at 10 µM [1] read?
The inhibition at 10 µM was 31.6%.

And the inhibition at 10 µM [2, 4]?
Its inhibition at 10 µM is 19.5%.

What about the viability at 48 h, 10 µM [3, 5] of the same molecule?
Its viability at 48 h, 10 µM is over 100%.

With `C/C(=N\Nc1nc(C)cs1)c1csc2ccccc12` [Compound S2o, (E)-2-(2-(1-(Benzo[b]thiophen-3-yl)ethylidene)hydrazineyl)-4-methylthiazole Hydrochloride] as the molecule, how does the inhibition at 10 µM [1] read?
Its inhibition at 10 µM is 27.9%.

What about the inhibition at 10 µM [2, 4] of the same molecule?
Its inhibition at 10 µM is 45.7%.

What about the viability at 48 h, 10 µM [3, 5] of the same molecule?
The viability at 48 h, 10 µM was over 100%.

For `C/C(=N\Nc1nc(C)cs1)c1cc2ccccc2o1` [Compound S2p, (E)-2-(2-(1-(Benzofuran-2-yl)ethylidene)hydrazineyl)-4-methylthiazole Hydrochloride], which inhibition at 10 µM [1] is on record?
Its inhibition at 10 µM is 74.3%.

And the inhibition at 10 µM [2, 4]?
Its inhibition at 10 µM is 31.4%.

What about the viability at 48 h, 10 µM [3, 5] of the same molecule?
Its viability at 48 h, 10 µM is over 100%.

With `C/C(=N\Nc1nc(C)cs1)C12CC3CC(CC(C3)C1)C2` [Compound S2q, 2-(2-((E)-1-((3s)-Adamantan-1-yl)ethylidene)hydrazineyl)-4-methylthiazole Hydrochloride] as the molecule, how does the inhibition at 10 µM [1] read?
Its inhibition at 10 µM is 30.5%.

What about the inhibition at 10 µM [2, 4] of the same molecule?
The inhibition at 10 µM was 40.5%.

What about the viability at 48 h, 10 µM [3, 5] of the same molecule?
Its viability at 48 h, 10 µM is over 100%.

Which inhibition at 10 µM [1] does the source give for `C/C(=N\NC(N)=[Se])c1ccc(C)cc1` [Se1a, (E)-2-(1-(4-Tolyl)ethylidene)hydrazine-1-carboselenoamide] here?
The inhibition at 10 µM was 98.2%.

And the inhibition at 10 µM [2, 4]?
Its inhibition at 10 µM is 21.6%.

And the viability at 48 h, 10 µM [3]?
The viability at 48 h, 10 µM was 34.1%.

What does the source list for `COc1ccc(/C(C)=N/NC(N)=[Se])cc1` [Se1b, (E)-2-(1-(4-Methoxyphenyl)ethylidene)hydrazine-1-carboselenoamide]?
inhibition at 10 µM [1]: 98.9%; inhibition at 10 µM [2, 6]: 30%; viability at 48 h, 10 µM [3]: 40.9%

Which inhibition at 10 µM [1] does the source give for `COc1cccc(/C(C)=N/NC(N)=[Se])c1` [Se1g, (E)-2-(1-(3-Methoxyphenyl)ethylidene)hydrazine-1-carboselenoamide] here?
The inhibition at 10 µM was 101%.

What about the inhibition at 10 µM [2, 6] of the same molecule?
The inhibition at 10 µM was 7.03%.

What about the viability at 48 h, 10 µM [3] of the same molecule?
Its viability at 48 h, 10 µM is 31.1%.

For `C/C(=N\NC(N)=[Se])c1ccsc1` [Se1l, (E)-2-(1-(Thiophen-3-yl)ethylidene)hydrazine-1-carboselenoamide], which inhibition at 10 µM [1] is on record?
Its inhibition at 10 µM is 90.1%.

And the inhibition at 10 µM [2, 6]?
Its inhibition at 10 µM is 30.5%.

And the viability at 48 h, 10 µM [3]?
Its viability at 48 h, 10 µM is 38.1%.

For `C/C(=N\NC(N)=[Se])c1csc2ccccc12` [Se1o, (E)-2-(1-(Benzo[b]thiophen-3-yl)ethylidene)hydrazine-1-carboselenoamide], which inhibition at 10 µM [1] is on record?
The inhibition at 10 µM was 93.7%.

And the inhibition at 10 µM [2, 6]?
Its inhibition at 10 µM is 4.32%.

And the viability at 48 h, 10 µM [3]?
Its viability at 48 h, 10 µM is 31.4%.

What does the source list for `C/C(=N\NC(N)=[Se])c1cc2ccccc2o1` [Se1p, (E)-2-(1-(Benzofuran-2-yl)ethylidene)hydrazine-1-carboselenoamide]?
inhibition at 10 µM [1]: 102%; inhibition at 10 µM [2, 6]: 28.8%; viability at 48 h, 10 µM [3]: 39.4%
